We go through 19 molecules from patent publication US11420958B2, “Aryl and heteroaryl substituted indole compounds” (BRISTOL-MYERS SQUIBB COMPANY, priority 2017, dated 2022).

The structures appear in SMILES notation. Where only a bound is given, the exact number is not on record here.

What all share (format): cell-based
One experiment concerns the target human TLR7 (Homo sapiens (Human), UniProt Q9NYK1). Put plainly: TLR7 inhibition reporter assay (HEK-Blue, SEAP). The following applies: HEK-Blue cells overexpressing human TLR7, gardiquimod 7.5 μM stimulation. The method, then: (§1) TLR7/8/9 Inhibition Reporter Assays
(§2) HEK-Blue™-cells (Invivogen) overexpressing human TLR7, TLR8 or TLR9 receptors were used for screening inhibitors of these receptors using an inducible SEAP (secreted embryonic alkaline phosphatase) reporter gene under the control of the IFN-β minimal promoter fused to five NF-κc Band AP-1-binding sites. Briefly, cells are seeded into Greiner 384 well plates (15000 cells per well for TLR7, 20,000 for TLR8 and 25,000 for TLR9) and then treated with test compounds in DMSO to yield a final dose response concentration range of 0.05 nM-50 μM. After a 30 minute compound pre-treatment at room temperature, the cells are then stimulated with a TLR7 ligand (gardiquimod at a final concentration of 7.5 μM), TLR8 ligand (R848 at a final concentration of 15.9 μM) or TLR9 ligand (ODN2006 at final concentration of 5 nM) to activate NF-κB and AP-1 which induce the production of SEAP. After a 22 hour incubation at 37° C., 5% CO2, SEAP levels are determined with the addition of HEK-Bue™ Detection reagent (Invivogen), a cell culture medium that allows for detection of SEAP, according to manufacturer's specifications. The percent inhibition is determined as the % reduction in the HEK-Blue signal present in wells treated with agonist plus DMSO alone compared to wells treated with a known inhibitor.
For orientation: Reporter assays use an easily measured gene product as a stand-in for the process of interest.

In a further experiment the target is human TLR8 (Homo sapiens (Human), UniProt Q9NR97). Briefly: TLR8 inhibition reporter assay (HEK-Blue, SEAP). The following applies: HEK-Blue cells overexpressing human TLR8, R848 15.9 μM stimulation. The method, then: as §1, §2
In a further experiment the target is human TLR9 (Homo sapiens (Human), UniProt Q9NR96). Briefly: TLR9 inhibition reporter assay (HEK-Blue, SEAP). To be noted: HEK-Blue cells overexpressing human TLR9, ODN2006 5 nM stimulation. The method, then: as §1, §2
Sequence of human TLR9 (Q9NR96 26-1032): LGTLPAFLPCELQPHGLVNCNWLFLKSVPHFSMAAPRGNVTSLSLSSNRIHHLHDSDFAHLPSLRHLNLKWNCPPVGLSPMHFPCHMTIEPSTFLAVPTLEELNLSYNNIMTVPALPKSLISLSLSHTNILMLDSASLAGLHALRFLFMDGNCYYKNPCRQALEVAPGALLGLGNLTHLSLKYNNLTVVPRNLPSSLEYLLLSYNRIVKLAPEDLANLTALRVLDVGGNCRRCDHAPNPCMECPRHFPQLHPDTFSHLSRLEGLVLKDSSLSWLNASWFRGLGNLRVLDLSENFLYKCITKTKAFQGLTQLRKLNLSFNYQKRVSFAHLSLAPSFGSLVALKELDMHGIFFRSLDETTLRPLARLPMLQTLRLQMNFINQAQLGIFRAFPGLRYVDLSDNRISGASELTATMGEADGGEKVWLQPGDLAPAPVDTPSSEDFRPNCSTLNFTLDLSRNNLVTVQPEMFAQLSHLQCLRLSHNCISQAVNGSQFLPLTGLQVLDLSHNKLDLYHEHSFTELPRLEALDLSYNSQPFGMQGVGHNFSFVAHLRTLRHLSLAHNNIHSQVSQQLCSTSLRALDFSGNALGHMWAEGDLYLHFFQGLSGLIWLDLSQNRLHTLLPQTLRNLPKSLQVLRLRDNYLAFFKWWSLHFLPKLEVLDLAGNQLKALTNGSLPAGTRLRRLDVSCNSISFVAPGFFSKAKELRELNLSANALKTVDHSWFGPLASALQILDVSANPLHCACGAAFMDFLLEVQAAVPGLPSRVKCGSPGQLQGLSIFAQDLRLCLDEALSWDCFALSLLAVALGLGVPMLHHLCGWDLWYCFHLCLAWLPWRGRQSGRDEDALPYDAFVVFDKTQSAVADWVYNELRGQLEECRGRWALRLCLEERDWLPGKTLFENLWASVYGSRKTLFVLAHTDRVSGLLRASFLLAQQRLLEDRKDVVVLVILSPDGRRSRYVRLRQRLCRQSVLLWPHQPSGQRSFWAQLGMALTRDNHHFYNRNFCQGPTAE

Sequence of human TLR7 (Q9NYK1 27-1049): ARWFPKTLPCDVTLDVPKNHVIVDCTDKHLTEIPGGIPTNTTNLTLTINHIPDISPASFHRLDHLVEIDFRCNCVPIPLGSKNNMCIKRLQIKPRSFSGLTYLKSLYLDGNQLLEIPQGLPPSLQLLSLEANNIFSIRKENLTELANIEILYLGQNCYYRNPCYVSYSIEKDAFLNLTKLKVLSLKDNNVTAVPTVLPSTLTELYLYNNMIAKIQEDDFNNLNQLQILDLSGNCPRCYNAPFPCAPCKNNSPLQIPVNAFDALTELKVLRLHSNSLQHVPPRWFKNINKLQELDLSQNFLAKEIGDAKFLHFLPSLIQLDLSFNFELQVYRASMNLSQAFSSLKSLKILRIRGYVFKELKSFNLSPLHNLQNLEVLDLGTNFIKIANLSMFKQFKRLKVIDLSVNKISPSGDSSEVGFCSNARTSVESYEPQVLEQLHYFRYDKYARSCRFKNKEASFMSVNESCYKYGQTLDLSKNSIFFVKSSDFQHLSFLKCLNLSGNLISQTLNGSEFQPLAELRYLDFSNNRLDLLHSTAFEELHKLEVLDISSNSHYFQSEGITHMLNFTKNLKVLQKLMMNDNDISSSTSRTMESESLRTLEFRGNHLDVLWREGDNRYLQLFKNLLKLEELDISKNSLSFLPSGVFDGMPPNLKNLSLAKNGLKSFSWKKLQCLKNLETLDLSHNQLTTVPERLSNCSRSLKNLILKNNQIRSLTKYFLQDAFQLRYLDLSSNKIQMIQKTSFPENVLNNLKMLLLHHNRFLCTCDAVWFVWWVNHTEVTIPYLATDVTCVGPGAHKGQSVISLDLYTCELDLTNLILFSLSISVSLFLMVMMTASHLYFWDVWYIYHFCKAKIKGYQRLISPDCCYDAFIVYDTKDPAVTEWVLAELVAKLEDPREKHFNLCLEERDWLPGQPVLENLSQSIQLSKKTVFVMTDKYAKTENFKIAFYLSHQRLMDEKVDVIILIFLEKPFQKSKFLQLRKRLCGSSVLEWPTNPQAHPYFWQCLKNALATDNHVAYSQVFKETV
Sequence of human TLR8 (Q9NR97 27-1041): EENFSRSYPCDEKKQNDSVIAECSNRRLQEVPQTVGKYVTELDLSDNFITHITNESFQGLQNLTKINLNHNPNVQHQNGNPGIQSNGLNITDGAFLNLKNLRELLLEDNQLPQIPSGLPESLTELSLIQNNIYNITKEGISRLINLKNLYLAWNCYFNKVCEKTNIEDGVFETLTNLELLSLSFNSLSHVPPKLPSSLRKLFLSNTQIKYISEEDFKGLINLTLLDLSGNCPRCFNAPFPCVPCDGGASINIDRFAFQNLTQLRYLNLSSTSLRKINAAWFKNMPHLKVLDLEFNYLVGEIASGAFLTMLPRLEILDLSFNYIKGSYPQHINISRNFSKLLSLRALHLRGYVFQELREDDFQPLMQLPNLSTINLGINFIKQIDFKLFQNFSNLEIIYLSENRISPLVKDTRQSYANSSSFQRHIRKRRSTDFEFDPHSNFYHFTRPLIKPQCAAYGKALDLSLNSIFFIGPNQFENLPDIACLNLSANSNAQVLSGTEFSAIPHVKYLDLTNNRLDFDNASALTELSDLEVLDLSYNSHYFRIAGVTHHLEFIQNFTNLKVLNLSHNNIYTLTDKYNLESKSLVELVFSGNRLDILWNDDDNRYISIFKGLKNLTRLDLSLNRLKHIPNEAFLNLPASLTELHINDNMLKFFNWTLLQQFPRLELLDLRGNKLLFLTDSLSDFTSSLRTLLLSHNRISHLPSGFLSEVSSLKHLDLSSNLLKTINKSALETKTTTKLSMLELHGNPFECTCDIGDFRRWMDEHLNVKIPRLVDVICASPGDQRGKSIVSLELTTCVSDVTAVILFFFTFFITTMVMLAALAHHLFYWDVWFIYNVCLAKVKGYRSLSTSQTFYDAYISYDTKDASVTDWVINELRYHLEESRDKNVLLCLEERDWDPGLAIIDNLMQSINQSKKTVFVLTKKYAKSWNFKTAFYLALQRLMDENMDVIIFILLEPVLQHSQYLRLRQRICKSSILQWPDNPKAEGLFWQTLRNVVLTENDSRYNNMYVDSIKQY

For `Cc1cc(-c2[nH]c3ccc(-c4nnc(C5CCCN(C(C)C)C5)[nH]4)cc3c2C(C)C)ccn1` (stereo not drawn) [Example 204, 3-isopropyl-5-(5-(1-isopropylpiperidin-3-yl)-4H-1,2,4-triazol-3-yl)-2-(2-methylpyridin-4-yl)-1H-indole], the concentration for half-maximal inhibition (IC50) came to 67 nM against human TLR7, 5.7 nM against human TLR8 and 218 nM on human TLR9.
On to `Cc1cc(-c2[nH]c3ccc(-c4nnc(C5CCCN(C(C)C)C5)[nH]4)cc3c2C(C)C)ccn1` (stereo not drawn) [Example 188, 3-isopropyl-5-(5-(1-isopropylpiperidin-3-yl)-4H-1,2,4-triazol-3-yl)-2-(2-methylpyridin-4-yl)-1H-indole], for which the figures for the IC50 on human TLR7, on human TLR8 and against human TLR9 were 28 nM, 3 nM and 328 nM, respectively.
Consider `Cc1cc(-c2[nH]c3ccc(-c4ccc(Cl)nc4)cc3c2C(C)C)ccn1` [Example 235, 5-(6-chloropyridin-3-yl)-3-isopropyl-2-(2-methylpyridin-4-yl)-1H-indole], for which the IC50 was 667 nM against human TLR7, 301 nM at human TLR8 and more than 50000 nM on human TLR9.
For `COc1ccc(-c2[nH]c3ccc(-c4cc[nH]c4)cc3c2C(C)C)cc1OC` [Example 465, 2-(3,4-dimethoxyphenyl)-3-isopropyl-5-(1H-pyrrol-3-yl)-1H-indole], in that order: 305 nM, 81 nM and 33000 nM.
Regarding `COc1ccc(-c2[nH]c3ccc(-c4nnc(C(=O)N5CCC(O)CC5)o4)cc3c2C(C)C)cc1OC` [Example 91, (5-(2-(3,4-dimethoxyphenyl)-3-isopropyl-1H-indol-5-yl)-1,3,4-oxadiazol-2-yl)(4-hydroxypiperidin-1-yl)methanone], the concentration for half-maximal inhibition (IC50) against human TLR7 was 348 nM; at human TLR8, 111 nM; on human TLR9 it was more than 50000 nM.
For `Cc1cc(-c2[nH]c3ccc(-c4ccc(N5CCC5)nc4)cc3c2C(C)C)cc(C)n1` [Example 338, 5-(6-(azetidin-1-yl)pyridin-3-yl)-2-(2,6-dimethylpyridin-4-yl)-3-isopropyl-1H-indole], in that order: 18 nM, 31 nM and 46500 nM.
For `Cc1cc(-c2[nH]c3ccc(-c4nnc(C(=O)NCCN(C)C)s4)cc3c2C(C)C)ccn1` [Example 133, N-(2-(dimethylamino)ethyl)-5-(3-isopropyl-2-(2-methylpyridin-4-yl)-1H-indol-5-yl)-1,3,4-thiadiazole-2-carboxamide], in that order: 18 nM, 2 nM and 441 nM.
On the same counts, the results for `COc1ccc(-c2[nH]c3ccc(-c4ccnc(C(=O)NC5CCC(N)CC5)c4)cc3c2C(C)C)cc1OC` (stereo not drawn) [Example 12, N-(4-aminocyclohexyl)-4-(2-(3,4-dimethoxyphenyl)-3-isopropyl-1H-indol-5-yl)picolinamide] are 69 nM, 37 nM and 2160 nM.
For the molecule `COc1ccc(-c2[nH]c3ccc(-c4nnc(C5CCN(C6CCN(C(C)C)CC6)CC5)o4)cc3c2C(C)C)cc1OC` [Example 22, 2-(2-(3,4-dimethoxyphenyl)-3-isopropyl-1H-indol-5-yl)-5-(1′-isopropyl-[1,4′-bipiperidin]-4-yl)-1,3,4-oxadiazole], the values for the IC50 on human TLR7, against human TLR8 and on human TLR9 were 36 nM, 11 nM and 266 nM, respectively.
On to `Cc1cc(-c2[nH]c3ccc(-c4nnc(C5CCCN(C(C)C)C5)o4)cc3c2C(C)C)ccn1` (stereo not drawn) [Example 312, 2-(3-isopropyl-2-(2-methylpyridin-4-yl)-1H-indol-5-yl)-5-(1-isopropylpiperidin-3-yl)-1,3,4-oxadiazole], for which the values for the half-inhibitory concentration (IC50) against human TLR7, against human TLR8 and at human TLR9 were 36 nM, 2.4 nM and 633 nM, respectively.
For `COc1ccc(-c2[nH]c3ccc(-c4nnc(CN(C)C)o4)cc3c2C(C)C)cc1OC` [Example 44, 1-(5-(2-(3,4-dimethoxyphenyl)-3-isopropyl-1H-indol-5-yl)-1,3,4-oxadiazol-2-yl)-N,N-dimethylmethanamine], in that order: 266 nM, 14 nM and 12100 nM.
On to `Cc1cc(-c2[nH]c3ccc(-c4nc(C(=O)NCCN5CCOCC5)co4)cc3c2C(C)C)cc(C)n1` [Example 281, 2-(2-(2,6-dimethylpyridin-4-yl)-3-isopropyl-1H-indol-5-yl)-N-(2-morpholinoethyl)oxazole-4-carboxamide], for which the half-maximal inhibitory concentration (IC50) against human TLR7 worked out at 34 nM; on human TLR8, 8.7 nM; at human TLR9 it was 11200 nM.
On the same counts, the results for `Cc1cc(-c2[nH]c3ccc(-c4cccnc4)cc3c2C(C)C)cc(C)n1` [Example 304, 2-(2,6-dimethylpyridin-4-yl)-3-isopropyl-5-(pyridin-3-yl)-1H-indole] are 63 nM, 69 nM and 23000 nM.
Turning to `COc1ccc(-c2[nH]c3ccc(-c4nnc([C@H]5CCCNC5)o4)cc3c2C(C)C)cc1OC` [Example 52, (S)-2-(2-(3,4-dimethoxyphenyl)-3-isopropyl-1H-indol-5-yl)-5-(piperidin-3-yl)-1,3,4-oxadiazole], the IC50 at human TLR7 was found to be 26 nM; on human TLR8, 6 nM; against human TLR9 it was 770 nM.
On the same counts, the results for `Cc1cc(-c2[nH]c3ccc(-c4ccn5ncnc5c4C)cc3c2C(C)C)cc(C)n1` [Example 355, 7-(2-(2,6-dimethylpyridin-4-yl)-3-isopropyl-1H-indol-5-yl)-8-methyl-[1,2,4]triazolo[1,5-a]pyridine] are 57 nM, 176 nM and 25200 nM.
As to `Cc1cc(-c2[nH]c3ccc(-c4ccc(C(=O)N5CCC(N(C)C)CC5)cc4)cc3c2C(C)C)ccn1` [Example 313, (4-(dimethylamino)piperidin-1-yl)(4-(3-isopropyl-2-(2-methylpyridin-4-yl)-1H-indol-5-yl)phenyl)methanone], the results for the IC50 at human TLR7, against human TLR8 and against human TLR9 were 13 nM, 4.7 nM and 326 nM, respectively.
On the same counts, the results for `CCc1c(-c2ccc(OC)c(OC)c2)[nH]c2ccc(-c3nnc(C(=O)NC4CCN(C(C)C)CC4)o3)cc12` [Example 39, 5-(2-(3,4-dimethoxyphenyl)-3-ethyl-1H-indol-5-yl)-N-(1-isopropylpiperidin-4-yl)-1,3,4-oxadiazole-2-carboxamide] are 93 nM, 7.9 nM and 433 nM.
For `Cc1cc(-c2[nH]c3ccc(-c4nc(C(=O)NCCN5CCCCC5)co4)cc3c2C(C)C)cc(C)n1` [Example 274, 2-(2-(2,6-dimethylpyridin-4-yl)-3-isopropyl-1H-indol-5-yl)-N-(2-(piperidin-1-yl)ethyl)oxazole-4-carboxamide], in that order: 22 nM, 6.2 nM and 602 nM.
For `Cc1cc(-c2[nH]c3ccc(-c4nnc([C@H]5Cc6ccccc6CN5)o4)cc3c2C(C)C)ccn1` [Example 72, (R)-2-(3-isopropyl-2-(2-methylpyridin-4-yl)-1H-indol-5-yl)-5-(1,2,3,4-tetrahydroisoquinolin-3-yl)-1,3,4-oxadiazole], in that order: 799 nM, 45 nM and 1870 nM.

Broadly, the IC50 is the midpoint of a concentration-inhibition curve. The low end stands for greater potency, the high end for weaker potency.
